The numbers were not newly measured in patent US8974795B2, “Controlled release formulation based on hematin anhydride crystals for the induction of an innate immune reaction” (priority 2010, dated 2015), which cites them from elsewhere.

As usually defined, the pKa is the pH at which an ionisable group is half protonated.

Conditions in one data set: not given
Consider `C=CC1=C(C)c2cc3[n-]c(cc4[n-]c(cc5nc(cc1n2)C(C)=C5C=C)c(C)c4CCC(=O)O)c(CCC(=O)O)c3C.[Fe+2]` [heme], for which the pKa result is “about 4.5”.

The same data set, now with this note: Table 1, medium strong organic acids.
As for `O=C(O)C(O)c1ccccc1` (racemic) [DL-Mandelic acid], the pKa is reported as 3.85.

For the compound `O=C(O)Cc1ccccc1Cl` [2-Chlorophenylacetic acid], the pKa is 4.07. Consider `O=C(O)CCc1ccccc1Cl` [3-(2-Chlorophenyl)propanoic acid], for which the pKa is listed as 4.58. As to `O=C(O)CCc1cccc(Cl)c1` [3-(3-Chlorophenyl)propanoic acid], the pKa is 4.59. Regarding `O=C(O)CCc1ccc(Cl)cc1` [3-(4-Chlorophenyl)propanoic acid], the pKa is reported as 4.61. As for `CC(Cl)CC(=O)O` (stereo not drawn) [3-Chlorobutanoic acid], the pKa is recorded as 4.05.

Regarding `O=C(O)Cc1cccc(Cl)c1` [3-Chlorophenylacetic acid], the pKa is recorded as 4.14. Regarding `O=C(O)Cc1ccc(Cl)cc1` [4-Chlorophenylacetic acid], the pKa was 4.19. As to `O=C(O)C(c1ccccc1)c1ccccc1` [Diphenylacetic acid], the pKa is recorded as 3.94.

Consider `Cc1cc(C)cc(C(=O)O)c1` [Mesitylenic acid], for which the pKa was 4.32.

For the compound `CC(C(=O)O)c1ccccc1` (stereo not drawn) [α-Phenylpropanoic acid], the pKa is 4.64.
